Reference: publication PMC5330486 (PLoS Biology, 2017)

Molecular target: T1, AsfvPolX (ASFV DNA Polymerase X) (African swine fever virus BA71V, UniProt P42494)
T1 construct: gene Ba71V-97
Assay: biochemical
Type: binding
Settings: for AsfvPolX: no DNA stated, buffer, metal and temperature not stated

T1 sequence (P42494 whole entry, looked up): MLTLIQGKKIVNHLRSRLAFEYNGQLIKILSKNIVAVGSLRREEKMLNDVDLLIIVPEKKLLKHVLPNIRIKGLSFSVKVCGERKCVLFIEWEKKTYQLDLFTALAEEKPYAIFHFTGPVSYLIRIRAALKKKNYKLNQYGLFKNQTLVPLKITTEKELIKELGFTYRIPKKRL

SMILES | Kd [µM] | also measured
Nc1ncnc2c1ncn2[C@H]1C[C@H](O)[C@@H](COP(=O)(O)OP(=O)(O)OP(=O)(O)O)O1 [dATP] | – | AsfvPolX: 0.66 ± 0.05 µM
Nc1ccn([C@H]2C[C@H](O)[C@@H](COP(=O)(O)OP(=O)(O)OP(=O)(O)O)O2)c(=O)n1 [dCTP] | 6.85 ± 0.55 | –
Nc1nc2c(ncn2[C@H]2C[C@H](O)[C@@H](COP(=O)(O)OP(=O)(O)OP(=O)(O)O)O2)c(=O)[nH]1 [dGTP] | – | AsfvPolX (structures are ternary complexes with gap(P) DNA and Mn2+): 0.37+0.02 μM
Cc1cn([C@H]2C[C@H](O)[C@@H](COP(=O)(O)OP(=O)(O)OP(=O)(O)O)O2)c(=O)[nH]c1=O [dTTP] | 9.09 ± 0.89 | –
